The subject of series [1] is VLPs coated with Marburg virus envelope protein. The format is biochemical, Ebola virus.
Series [2] relates to VLPs coated with VSV envelope protein. It counts as biochemical, Ebola virus.
Series [3] relates to lentiviruses coding EGFP and coated with FuG-C hybrid envelope protein. The format is cell-based.
The subject of a further series is equine erythrocytes. To be noted: pH 7.4.
For the next series, the system named is human erythrocytes. To be noted: pH 7.4.

Consider GALA, for which the “virolytic activity on enzymatic VLPs” value in series [1] is recorded as “moderate virolytic activity”. Moreover, the “virolytic activity on enzymatic VLPs” value in series [2] is given as “moderate virolytic activity”. Further, in series [3], the “concentrations that effectively block the virus entry” value is reported as “above 5 μM” and the “inhibitory effect on lentivirus infectivity” value (“inhibitory effect” below) was “remarkably potent inhibitor”.
On to Hecate, for which the hemolytic activity entry is listed as “virtually no effect on equine RBCs” with equine erythrocytes and “moderately lyse human erythrocytes” in the series with human erythrocytes. In series [3], the “inhibitory effect” value was “substantial antiviral effect”.
As to WEAKLAKALAKALAKHLAKALAKALKACEA, the hemolytic activity entry in the series on equine erythrocytes and in the series with human erythrocytes was “moderate hemolytic activity” each time. Besides, the “amount of produced GFP (GFP fluorescence of cell lysates)” value in series [3] is recorded as “might slightly increase the amount of produced GFP but the increase is not significant”. Further, in series [3], the “inhibitory effect” value was “substantial antiviral effect”.
